Patent US20250179077A1, “QUINAZOLINE COMPOUNDS AND USES THEREOF AS INHIBITORS OF MUTANT KRAS PROTEINS” (AMGEN INC., priority 2022, published 2025)
Read-outs that look alike come from different tables or passages of the source.

Assays:
[1] = molecular target: His-tagged KRAS G12D protein (Homo sapiens, UniProt P01116, G12D); test: KRAS G12D TR-FRET Assay; type: binding
How it was run: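 His-KRAS G12D (20 nM) was preincubated with titrated compound for 30 min at RT in HEPES pH 7.4 buffer with MgCl2, 10 μM GDP. Biotin-KRPep-2d (20 nM) was then added for 1 h, followed by Eu-anti-His/streptavidin-d2 for 1 h. The 665/615 nm TR-FRET ratio was fitted 4-parameter to give IC50.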

[2] = molecular target: GDP-bound KRAS protein (aa 1-169), containing both G12D and C118A amino acid substitutions (Homo sapiens, UniProt P01116, C118A/G12D); test: KRAS G12D Coupled Nucleotide Exchange Assay; type: biochemical
GDP-bound KRAS protein (aa 1-169), containing both G12D and C118A amino acid substitutions, sequence (P01116 1-169 isoform P01116-2 G12D/C118A): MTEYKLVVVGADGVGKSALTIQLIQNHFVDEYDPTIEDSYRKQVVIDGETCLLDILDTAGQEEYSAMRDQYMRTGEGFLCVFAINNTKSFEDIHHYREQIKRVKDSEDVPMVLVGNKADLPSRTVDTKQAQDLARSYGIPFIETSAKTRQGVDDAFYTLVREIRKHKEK
Method: KRAS G12D Coupled Nucleotide Exchange Assay
Following compound pre-incubation, purified SOS protein (aa 564-1049) and GTP (Roche 10106399001) were added to the assay wells and incubated for an additional 30 min. […] The assay plates were then read on a PerkinElmer EnVision Multilabel Reader, using AlphaScreen® technology, and data were analyzed using a 4-parameter logistic model to calculate IC50 values.

[3] = tested on: Phosphorylation of ERK1/2 in AsPC-1 cells; test: Phospho-ERK1/2 MSD Assay; type: cell-based
How it was run: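 Phospho-ERK1/2 was quantified by MSD whole-cell lysate immunoassay in RIPA lysates made with protease/phosphatase inhibitors. A 4-parameter logistic model gave IC50.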

[4] = Homo sapiens, ASPC1, 2 h, read-out: 2 h p-ERK (AsPC-1 cells), IC50, AsPC-1 cells, 2 h compound treatment

His-tagged KRAS G12D protein, sequence (P01116 1-188 isoform P01116-2 G12D): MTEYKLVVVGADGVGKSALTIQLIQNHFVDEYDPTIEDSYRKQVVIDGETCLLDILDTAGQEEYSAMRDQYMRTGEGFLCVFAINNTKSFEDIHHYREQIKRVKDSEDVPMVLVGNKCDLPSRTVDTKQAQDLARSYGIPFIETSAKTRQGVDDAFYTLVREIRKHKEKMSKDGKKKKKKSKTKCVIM

| IC50 [1] [nM] | IC50 [2] [nM] | IC50 [3, 4] [nM] | IC50 ([3]; read-out: 2 h p-ERK (AsPC-1 cells), IC50, AsPC-1 cells, 2 h compound treatment) [nM] | SMILES |
| --- | --- | --- | --- | --- |
| 3 | 3 | 23 |  | C#Cc1cccc2cc(O)cc(-c3ccc4c(N5CCC[C@@](C)(O)C5)nc(OC[C@@]56CCCN5C[C@H](F)C6)nc4c3F)c12 [Example 50, (R)-1-(7-(8-Ethynyl-3-hydroxynaphthalen-1-yl)-8-fluoro-2-(((2R,7a.S)-2-fluorotetrahydro-1H-pyrrolizin-7a(5H)-yl)methoxy)quinazolin-4-yl)-3-methylpiperidin-3-ol] |
| 4 | 4 | 21 |  | C#Cc1c(F)ccc2cc(O)cc(-c3ccc4c(N5CCC[C@@](C)(O)C5)nc(OC[C@@]56CCCN5C[C@H](F)C6)nc4c3F)c12 [Example 47, (R)-1-(7-(8-Ethynyl-7-fluoro-3-hydroxynaphthalen-1-yl)-8-fluoro-2-(((2R,7aS)-2-fluorotetrahydro-1H-pyrrolizin-7a(5H)-yl)methoxy)quinazolin-4-yl)-3-methylpiperidin-3-ol] |
| 2 | 2 | 58 |  | CCc1c(F)ccc2cc(O)cc(-c3c(F)cc4c(N5CCCC(O)(C(F)F)C5)nc(OC[C@@]56CCCN5C[C@H](F)C6)nc4c3F)c12 (single isomer, unassigned) [Example 20] |
| 5 | 3 | 39 |  | C/C=C\c1c(Cl)cc2[nH]ncc2c1-c1c(F)cc2c(N3CCC[C@](O)(CF)C3)nc(OC[C@@]34CCCN3C[C@H](F)C4)nc2c1F (single isomer, unassigned) [Example 101] |
| 12 | 12 |  | 425 | CCc1c(F)ccc2cc(O)cc(-c3c(F)cc4c(N5CCCC6(CCO6)C5)nc(OC[C@@]56CCCN5C[C@H](F)C6)nc4c3F)c12 (single isomer, unassigned) [Example 38] |
| 9 | 5 | 93 |  | C[C@@H]1CC1c1c(Cl)cc2[nH]ncc2c1-c1c(F)cc2c(N3CCOCC(O)(CF)C3)nc(OC[C@@]34CCCN3C[C@H](F)C4)nc2c1F (single isomer, unassigned) [Example 99] |
| 10 | 5 | 58 |  | O=C1NCC2(CCCN(c3nc(OC[C@@]45CCCN4C[C@H](F)C5)nc4c(F)c(-c5cc(O)cc(Cl)c5C5CC5)ccc34)C2)O1 (stereo partly drawn) [Example 83, 7-(7-(3-Chloro-2-cyclopropyl-5-hydroxyphenyl)-8-fluoro-2-(((2R,7a5)-2-fluorotetrahydro-1H-pyrrolizin-7a(5H)-yl)methoxy)quinazolin-4-yl)-1-oxa-3,7-diazaspiro[4.5]decan-2-one] |
| 3 | 3 | 303 |  | CCc1c(F)ccc2cc(O)cc(-c3ccc4c(N5C[C@H](NC(=O)OC)CC(F)(F)C5)nc(OC[C@@]56CCCN5C[C@H](F)C6)nc4c3F)c12 [Example 5, Methyl ((R)-1-(7-(8-ethyl-7-fluoro-3-hydroxynaphthalen-1-yl)-8-fluoro-2-(((2R,7aS)-2-fluorotetrahydro-1H-pyrrolizin-7a(5H)-yl)methoxy)quinazolin-4-yl)-5,5-difluoropiperidin-3-yl)carbamate] |
| 5 | 4 | 8 |  | C[C@@]1(O)COCCN(c2nc(OC[C@@]34CCCN3C[C@H](F)C4)nc3c(F)c(-c4cc(O)cc5ccc(F)c(Cl)c45)c(F)cc23)C1 (single isomer, unassigned) [Example 81] |
| 7 | 5 | 14 |  | CCc1c(F)ccc2cc(O)cc(-c3ccc4c(N5CCC[C@@]6(CNC(=O)O6)C5)nc(OC[C@@]56CCCN5C[C@H](F)C6)nc4c3F)c12 (single isomer, unassigned) [Example 89] |
| 4 | 4 | 270 |  | CCc1c(F)ccc2cc(O)cc(-c3c(O)cc4c(N5CCCOCC5)nc(OC[C@@]56CCCN5C[C@H](F)C6)nc4c3F)c12 [Example 26, 7-(8-Ethyl-7-fluoro-3-hydroxynaphthalen-1-yl)-8-fluoro-2-(((2R,7aS)-2-fluorotetrahydro-1H-pyrrolizin-7a(5H)-yl)methoxy)-4-(1,4-oxazepan-4-yl)quinazolin-6-ol] |
| 19 | 4 | 185 |  | C#Cc1c(F)ccc2cc(N)cc(-c3c(F)cc4c(N5CCOCC(C)(O)C5)nc(OC[C@@]56CCCN5C[C@H](F)C6)nc4c3F)c12 (stereo partly drawn) [Example 70, 4-(7-(3-Amino-8-ethynyl-7-fluoronaphthalen-1-yl)-6,8-difluoro-2-(((2R,7aS)-2-fluorotetrahydro-1H-pyrrolizin-7a(5H)-yl)methoxy)quinazolin-4-yl)-6-methyl-1,4-oxazepan-6-ol] |
| 3 | 2 | 59 |  | C/C=C\c1c(Cl)cc2[nH]ncc2c1-c1ccc2c(N3CCC[C@]4(CCO4)C3)nc(OC[C@@]34CCCN3C[C@H](F)C4)nc2c1F [Example 116, (4S)-6-(7-(6-Chloro-5-((Z)-prop-1-en-1-yl)-1H-indazol-4-yl)-8-fluoro-2-(((2R,7aS)-2-fluorotetrahydro-1H-pyrrolizin-7a(5H)-yl)methoxy)quinazolin-4-yl)-1-oxa-6-azaspiro[3.5]nonane] |
| 10 | 6 | 87 |  | CC1CCCc2cc(O)cc(-c3ccc4c(N5CCC[C@@](C)(O)C5)nc(OC[C@@]56CCCN5C[C@H](F)C6)nc4c3F)c21 (stereo partly drawn) [Example 96, (3R)-1-(8-Fluoro-2-(((2R,7aS)-2-fluorotetrahydro-1H-pyrrolizin-7a(5H)-yl)methoxy)-7-(3-hydroxy-8-methyl-5,6,7,8-tetrahydronaphthalen-1-yl)quinazolin-4-yl)-3-methylpiperidin-3-ol] |
| 12 | 7 | 525 |  | CCc1cccc2cc(O)cc(-c3c(C#N)cc4c(N5CCCOCC5)nc(OC[C@@]56CCCN5C[C@H](F)C6)nc4c3F)c12 [Example 45, 7-(8-Ethyl-3-hydroxynaphthalen-1-yl)-8-fluoro-2-(((2R,7aS)-2-fluorotetrahydro-1H-pyrrolizin-7a(5H)-yl)methoxy)-4-(1,4-oxazepan-4-yl)quinazoline-6-carbonitrile] |
| 3 | 4 | 47 |  | CCc1c(F)ccc2cc(O)cc(-c3ccc4c(N5CCCC6(CC(=O)N6)C5)nc(OC[C@@]56CCCN5C[C@H](F)C6)nc4c3F)c12 (stereo partly drawn) [Example 51, 6-(7-(8-Ethyl-7-fluoro-3-hydroxynaphthalen-1-yl)-8-fluoro-2-(((2R,7aS)-2-fluorotetrahydro-1H-pyrrolizin-7a(5H)-yl)methoxy)quinazolin-4-yl)-1,6-diazaspiro[3.5]nonan-2-one] |
| 11 | 10 | 391 |  | CCc1c(F)ccc2cc(O)cc(-c3c(F)cc4c(N5CCOCC(F)(F)C5)nc(OC[C@@]56CCCN5C[C@H](F)C6)nc4c3F)c12 [Example 37, 4-(4-(6,6-Difluoro-1,4-oxazepan-4-yl)-6,8-difluoro-2-(((2R,7aS)-2-fluorotetrahydro-1H-pyrrolizin-7a(5H)-yl)methoxy)quinazolin-7-yl)-5-ethyl-6-fluoronaphthalen-2-ol] |
| 154 | 9 | 500 |  | CCc1c(F)ccc2cc(N)cc(-c3c(F)cc4c(N5CCCC6(CCO6)C5)nc(OC[C@@]56CCCN5C[C@H](F)C6)nc4c3F)c12 (stereo partly drawn) [Example 75, 4-(6,8-Difluoro-2-(((2R,7aS)-2-fluorotetrahydro-1H-pyrrolizin-7a(5H)-yl)methoxy)-4-(1-oxa-6-azaspiro[3.5]nonan-6-yl)quinazolin-7-yl)-5-ethyl-6-fluoronaphthalen-2-amine] |
| 5 | 5 | 125 |  | C/C=C\c1c(Cl)cc2[nH]ncc2c1-c1c(F)cc2c(N3CCC[C@](O)(C(F)F)C3)nc(OC[C@@]34CCCN3C[C@H](F)C4)nc2c1F (single isomer, unassigned) [Example 112] |
| 2 | 1 | 90 |  | CCc1c(F)ccc2cc(N)cc(-c3c(F)cc4c(N5CCCC6(CNC(=O)O6)C5)nc(OC[C@@]56CCCN5C[C@H](F)C6)nc4c3F)c12 (stereo partly drawn) [Example 73, 7-(7-(3-Amino-8-ehtyl-7-fluoronaphthalen-1-yl)-6,8-difluoro-2-(((2R,7aS)-2-fluorotetrahydro-1H-pyrrolizin-7a(5H)-yl)methoxy)quinazolin-4-yl)-1-oxa-3,7-diazaspiro[4.5]decan-2-one] |
| 4 | 3 | 90 |  | Cc1cc2[nH]ncc2c(-c2c(F)cc3c(N4CCC[C@](O)(CF)C4)nc(OC[C@@]45CCCN4C[C@H](F)C5)nc3c2F)c1C1CC1 (single isomer, unassigned) [Example 100] |
| 7 | 5 | 27 |  | C/C=C\c1c(Cl)cc2[nH]ncc2c1-c1c(F)cc2c(N3CCOC[C@@](C)(O)C3)nc(OC[C@@]34CCCN3C[C@H](F)C4)nc2c1F [Example 103, (6S)-4-(7-(6-Chloro-5-((Z)-prop-1-en-1-yl)-1H-indazol-4-yl)-6,8-difluoro-2-(((2R,7aS)-2-fluorotetrahydro-1H-pyrrolizin-7a(5H)-yl)methoxy)quinazolin-4-yl)-6-methyl-1,4-oxazepan-6-ol] |
